Measured values reported in patent EP0153538A1, “Derivatives of melilotic acid, and medicaments containing them” (Laboratoire Marcel Richard Société anonyme dite, priority 1984, dated 1985).
Where two headings read alike, the source gives them in different places.

How the values were obtained:
[1] = system: rat anesthésié; test: Blood pressure in the anaesthetised rat after IV administration; assay type: in vivo; details: rat anesthésié à l'éthylméthane, IV 100 mg/Kg
Protocol: Sur le rat anesthésié à l'éthylméthane,on enregistre après administration IV. de 100 mg/Kg de produit selon l'invention une légère hypotension, soit une baisse de 15 %.

[2] = system: chien anesthésié; test: Cardiovascular and respiratory effects in the pentobarbital-anaesthetised dog after IV injection; assay type: in vivo; details: chien anesthésié au Pentobarbital, IV 50 mg/Kg
[3] = Acute toxicity in male SWISS mice; details: mouse, in vivo, souris mâle SWISS, read-out: toxicité (converted)
Protocol: Sa toxicité est de 1 500 mg/Kg par voie orale et de 750 mg/Kg par voie intrapéritonéale, déterminée sur la souris mâle-de la souche SWISS.

[4] = system: agrégation plaquettaire provoquée par l'ADP; test: Inhibition of ADP-induced platelet aggregation, rabbit; assay type: in vivo; details: lapin, 100 mg/Kg
Protocol: (§1) Ce produit inhibe l'agrégation plaquettaire provoquée par l'ADP (adénosine diphosphate) : • sur le sang humain, inhibition de 40 % à 100 mg/Kg, sur le rat et le lapin, inhibition de 60 Z à 100 mg/Kg.

[5] = system: artériopathies périphériques, oedème de la cheville, varices; test: Therapeutic application (peripheral arteriopathies, ankle oedema, varices); assay type: in vivo
[6] = system: souris; test: Hot plate test (analgesia) in mice; assay type: in vivo; details: test à la plaque chauffante, 500 mg/Kg
Protocol: (§2) En ce qui concerne l'activité analgésique, le produit donne dans le test à la phénylbenzoquinone et dans le test à la plaque chauffante chez la souris une protection de 88 % à 500 mg/Kg.

[7] = system: agrégation plaquettaire provoquée par l'ADP; test: Inhibition of ADP-induced platelet aggregation, human blood; assay type: cell-based; details: sang humain, 100 mg/Kg
Protocol: as §1

[8] = Solubility (qualitative); assay type: physicochemical
Protocol: Plus particulièrement, l'acide fluoro-5 acétyl mélilotique se présente sous la forme d'une poudre cristalline blanche, peu soluble dans l'eau, mais soluble dans l'alcool, l'acétone et dans les solvants organiques usuels. Son point de fusion est de 96-98°C.
12 g d'acide fluoro-5 acétoxy-2 cinnamique sont dissous dans 120cm3 acétate d'éthyle avec 1,5 g de palladium sur charbon à 10 % et hydro- gènés dans l'appareil de Parr sous 5 atmosphères d'hydrogène pendant 1 heure; on filtre et concentre sous vide pour obtenir un résidu cristallisé d'acide fluoro-5 acétylmélilotique pur peu soluble dans l'eau, soluble dans l'alcool, l'acétone et les solvants organiques usuels.

[9] = system: agrégation plaquettaire provoquée par l'ADP; test: Inhibition of ADP-induced platelet aggregation, rat; assay type: in vivo; details: 100 mg/Kg
Protocol: as §1

[10] = system: souris; test: Phenylbenzoquinone test (analgesia) in mice; assay type: in vivo; details: test à la phénylbenzoquinone, 500 mg/Kg
Protocol: as §2

SMILES: CC(=O)Oc1ccc(F)cc1CCC(=O)O [acide fluoro-5 acétyl mélilotique]
- hypotension (baisse) [1]: 15%
- augmentation du débit [2]: 65%
- battements [2]: renforcement
- diminution du rythme respiratoire [2]: 25%
- fréquence cardiaque [2]: sans modification
- hypotension [2]: 7%
- LD50 ([3]; ip, voie intrapéritonéale): 750 mg/kg
- LD50 ([3]; po, voie orale): 1500 mg/kg
- inhibition de l'agrégation plaquettaire provoquée par l'ADP [4]: 60%
- application thérapeutique [5]: résultats favorables
- protection [6]: 88%
- inhibition de l'agrégation plaquettaire provoquée par l'ADP [7]: 40%
- solubilité dans l'alcool, l'acétone et les solvants organiques usuels ([8]; alcool, acétone, solvants organiques usuels): soluble
- solubilité dans l'eau ([8]; eau): peu soluble
- inhibition de l'agrégation plaquettaire provoquée par l'ADP [9]: 60%
- protection [10]: 88%
